Conditions: [M+H-H2O]+; instrument: TW; calibrated with polyalanine and drug standards

| collision cross section (N2) [Å²] | Structure (SMILES) |
| --- | --- |
| 172.3 | COc1ccc2c(c1)OC[C@@H](Cc1ccc(OC)c(OC)c1)[C@@H]2O [3-DESHYDROXYSAPPANOL TRIMETHYL ETHER] |
| 127.5 | Cc1cc(O)c(C)c(O)c1C(=O)O [3-METHYLORSELLINIC ACID] |

Same assay, conditions: [M+H]+; instrument: TW; calibrated with polyalanine and drug standards

| Structure (SMILES) | collision cross section (N2) [Å²] |
| --- | --- |
| COc1cc2oc3cc(OC)c(OC)c(CC=C(C)C)c3c(=O)c2c(O)c1CC=C(C)C [1-HYDROXY-3,6,7-TRIMETHOXY-2,8-DIPRENYLXANTHONE] | 209.7 |
| COc1cc(O)c(C(=O)/C=C/c2ccc(O)c(OC)c2)c(OC)c1 [2',4-DIHYDROXY-3,4',6'-TRIMETHOXYCHALCONE] | 177.5 |
| O=c1[nH]c2cc(Cl)c(Cl)cc2[nH]c1=O [2,3-DIHYDROXY-6,7-DICHLOROQUINOXALINE] | 143 |
| COC1=CC(=O)C(C(=O)c2ccccc2)=CC1=O [2-BENZOYL-5-METHOXYBENZOQUINONE] | 145.4 |
| CCOc1cccc(C(=O)c2ccc(O)c(O)c2O)c1 [3,4-DIDESMETHYL-5-DESHYDROXY-3'-ETHOXYSCLEROIN] | 160.3 |
| O=c1c(O)c(-c2ccccc2)oc2cc(O)ccc12 [3,7-DIHYDROXYFLAVONE] | 152.1 |
| CC(=O)c1cc2ccccc2oc1=O [3-ACETYLCOUMARIN] | 131.6 |
| COc1ccc(-c2oc3ccccc3c(=O)c2O)cc1OC [3-HYDROXY-3',4'-DIMETHOXYFLAVONE] | 164.1 |
| CC1(C)CC2C1CC[C@]1(C)CCC3C(C(=O)O)CC(=O)O[C@@]32C1 (some centres undefined) [3-HYDROXY-4-(SUCCIN-2-YL)-CARYOLANE delta-LACTONE] | 174.9 |
| O=c1c(O)c(-c2ccccc2)oc2ccccc12 [3-HYDROXYFLAVONE] | 146.3 |
| CC(C)Cn1c(=O)n(C)c(=O)c2[nH]cnc21 [3-ISOBUTYL-1-METHYLXANTHINE (IBMX)] | 147.8 |
| Cn1c(=O)[nH]c(=O)c2[nH]cnc21 [3-METHYLXANTHINE] | 127.9 |
| C[C@]12CC[C@@H](O)C[C@H]1CCc1ccccc12 [3alpha-HYDROXY-4,4-BISNOR-8,11,13-PODOCARPATRIENE] | 140.4 |
| Cc1cc(=O)oc2c(O)c(O)ccc12 [4-METHYLDAPHNETIN] | 134.8 |
| COc1cc(O)c(C(C)=O)c(O)c1 [4-O-METHYLPHLORACETOPHENONE] | 130.5 |
| O=c1c(-c2ccccc2)coc2cc(O)cc(O)c12 [5,7-DIHYDROXYISOFLAVONE] | 152.3 |
| CC(=O)O[C@H]1C[C@@H](OC(C)=O)C(C)(C)C2CC(=O)[C@]3(C)C(CC[C@@]4(C)[C@H](c5ccoc5)OC(=O)[C@H]5O[C@]543)[C@]21C (some centres undefined) [7-DEACETOXY-7-OXOKHIVORIN] | 217.7 |
| CC(=O)Nc1cc([As](=O)(O)O)ccc1O [ACETARSOL] | 151.5 |
| O=c1ccc2cc(O[C@@H]3O[C@H](CO)[C@@H](O)[C@H](O)[C@H]3O)c(O)cc2o1 [AESCULIN] | 174 |
| CC[C@H]1[C@@H]2C[C@H]3[C@@H]4N(C)c5ccccc5[C@]45C[C@@H]([C@H]2[C@H]5O)N3[C@@H]1O [AJMALINE] | 172.9 |
| CN1C2CCC1CC(OC(c1ccccc1)c1ccccc1N)C2 (centres undefined) [AMINOBENZTROPINE] | 180.6 |
| CCC1(c2ccc(N)cc2)CCC(=O)NC1=O (centres undefined) [AMINOGLUTETHIMIDE] | 164.8 |
| COc1ccc(C(=O)N2CCCC2=O)cc1 [ANIRACETAM] | 146.6 |
| COc1cc2c(cc1OC)-c1c(oc3cc(O)cc(O)c3c1=O)CO2 [APOTOXICAROL] | 173.8 |
| COc1cc(OC)c(OC)cc1C=O [ASARYLALDEHYDE] | 138.3 |

Results, then the compound that gave them:

| collision cross section (N2) [Å²] | Structure (SMILES) |
| --- | --- |
| 145.3 | O=C(O)c1cc2cc(F)ccc2[nH]1 [5-FLUOROINDOLE-2-CARBOXYLIC ACID] |
| 161.4 | COc1ccc2oc(-c3ccccc3OC)cc(=O)c2c1 [6,2'-DIMETHOXYFLAVONE] |
| 162.1 | COc1cccc(-c2cc(=O)c3cc(OC)ccc3o2)c1 [6,3'-DIMETHOXYFLAVONE] |
| 152.4 | O=c1cc(-c2ccccc2O)oc2cc(O)ccc12 [7,2'-DIHYDROXYFLAVONE] |
| 153.2 | O=c1cc(-c2ccc(O)cc2)oc2cc(O)ccc12 [7,4'-DIHYDROXYFLAVONE] |
| 152 | O=c1cc(-c2ccccc2)oc2c(O)c(O)ccc12 [7,8-DIHYDROXYFLAVONE] |
| 208.3 | CC(C)CCC[C@@H](C)[C@H]1CC[C@H]2[C@@H]3C(=O)C=C4C[C@@H](O)CC[C@]4(C)[C@H]3CC[C@]12C [7-OXOCHOLESTEROL] |
| 202.9 | CC1(C)C(=O)[C@@H]2C[C@@]3(O)C4=CC(=O)O[C@@H](c5ccoc5)[C@]4(C)CCC3C(C)(C2=O)[C@H]1CC(=O)O (some centres undefined) [8-HYDROXYCARAPINIC ACID] |
| 148.1 | Cc1ccc2c(c1)CC[C@H]1CC(=O)CC[C@]21C [13-METHYL-4,4-BISNOR-8,11,13-PODOCARPATRIEN-3-ONE] |
| 160.3 | COc1ccc(-c2cc(=O)c3c(O)cc(O)cc3o2)cc1 [ACACETIN] |
| 191 | COc1ccc2c(c1)c(CC(=O)OCC(=O)O)c(C)n2C(=O)c1ccc(Cl)cc1 [ACEMETACIN] |
| 168.2 | CC(=O)Nc1ccc(OC(=O)c2ccccc2O)cc1 [ACETAMINOSALOL] |
| 140.7 | CC(=O)Nc1nnc(S(N)(=O)=O)s1 [ACETAZOLAMIDE] |
| 162 | CCCSc1ccc2nc(NC(=O)OC)[nH]c2c1 [ALBENDAZOLE] |
| 123 | O=c1ncnc2[nH][nH]cc1-2 [ALLOPURINOL] |
| 158.6 | C=CCc1ccccc1OCC(O)CNC(C)C (centres undefined) [ALPRENOLOL] |
| 145.6 | CN(C)c1nc(N(C)C)nc(N(C)C)n1 [ALTRETAMINE] |

| collision cross section (N2) [Å²] | Structure (SMILES) |
| --- | --- |
| 214.9 | CC(=O)OCC(=O)[C@@]12OC3(CCCC3)O[C@@H]1C[C@H]1[C@@H]3CCC4=CC(=O)C=C[C@]4(C)[C@@]3(F)[C@@H](O)C[C@@]12C [AMCINONIDE] |
| 155.3 | Nc1ccc(C(=O)NCC(=O)O)cc1 [AMINOHIPPURIC ACID] |
| 117.2 | Nc1nccs1 [AMINOTHIAZOLE] |
| 171.2 | Clc1ccc2c(c1)C(N1CCNCC1)=Nc1ccccc1O2 [AMOXAPINE] |
| 187.4 | CC1(C)S[C@@H]2[C@H](NC(=O)[C@H](N)c3ccc(O)cc3)C(=O)N2[C@H]1C(=O)O [AMOXICILLIN] |
| 193.1 | COc1cc(NS(C)(=O)=O)ccc1Nc1c2ccccc2nc2ccccc12 [AMSACRINE] |
| 162 | COc1ccc([C@@H](C)C(=O)c2ccc(O)cc2O)cc1 [ANGOLENSIN (R)] |
| 142.6 | O=C1c2c(O)cccc2Cc2cccc(O)c21 [ANTHRALIN] |
| 133.5 | COc1cc(O)cc(OC)c1OC [ANTIAROL] |
| 137.8 | Cc1cc(=O)n(-c2ccccc2)n1C [ANTIPYRINE] |
| 159 | CC(C)NCC(O)COc1ccc(CC(N)=O)cc1 (centres undefined) [ATENOLOL] |
| 197.6 | O=C(O)C1=CC(=C(c2ccc(O)c(C(=O)O)c2)c2ccc(O)c(C(=O)O)c2)C=CC1=O [AURIN TRICARBOXYLIC ACID] |
| 192.7 | C/C(=C(\CCOP(=O)(O)O)SC(=O)c1ccccc1)N(C=O)Cc1cnc(C)nc1N [BENFOTIAMINE] |
| 156.3 | O=C(Nc1ccc(C(=O)O)c(O)c1)c1ccccc1 [BENZOYLPAS] |
| 168.3 | COc1c(O)cc2c(c1O)[C@@H]1O[C@H](CO)[C@@H](O)[C@H](O)[C@H]1OC2=O [BERGENIN] |
| 214 | CCCCC(=O)O[C@]1(C(=O)CO)[C@@H](C)C[C@H]2[C@@H]3CCC4=CC(=O)C=C[C@]4(C)[C@@]3(F)[C@@H](O)C[C@@]21C [BETAMETHASONE VALERATE] |
| 186.7 | C[C@H]1C[C@H]2[C@@H]3CCC4=CC(=O)C=C[C@]4(C)[C@@]3(F)[C@@H](O)C[C@]2(C)[C@@]1(O)C(=O)CO [BETAMETHASONE] |

Same assay, conditions: [M+Na]+; instrument: TW; calibrated with polyalanine and drug standards

| collision cross section (N2) [Å²] | Structure (SMILES) |
| --- | --- |
| 153.5 | CC(=O)N[C@@H]1[C@@H](O)[C@H](O)[C@@H](CO)O[C@H]1O [ACETYLGLUCOSAMINE] |
| 141.4 | CC(=O)NCCCCCC(=O)O [ACEXAMIC ACID] |
| 134.5 | C=CCS(=O)C[C@H](N)C(=O)O (some centres undefined) [ALLIIN] |
| 164.4 | OC[C@H]1O[C@@H](Oc2ccc(O)cc2)[C@H](O)[C@@H](O)[C@@H]1O [ARBUTIN] |
| 233.5 | C[C@H]1[C@H](C)CC[C@]2(C(=O)O)CC[C@]3(C)C(=CC[C@@H]4[C@@]5(C)C[C@@H](O)[C@H](O)[C@@](C)(CO)[C@@H]5CC[C@]43C)[C@H]12 [ASIATIC ACID] |

| Structure (SMILES) | collision cross section (N2) [Å²] |
| --- | --- |
| CC[C@H](C)[C@H]1O[C@]2(C=C[C@@H]1C)C[C@@H]1C[C@@H](C/C=C(\C)[C@@H](O[C@H]3C[C@H](OC)[C@@H](O[C@H]4C[C@H](OC)[C@@H](O)[C@H](C)O4)[C@H](C)O3)[C@@H](C)/C=C/C=C3\CO[C@@H]4[C@H](O)C(C)=C[C@@H](C(=O)O1)[C@]34O)O2 [Abamectin B1A] | 290.5 |

Same assay, conditions: [M]+; instrument: TW; calibrated with polyalanine and drug standards

| collision cross section (N2) [Å²] | Structure (SMILES) |
| --- | --- |
| 212.2 | C=C1CC[C@H]2C(C)(C)CCC[C@]2(C)[C@H]1CC/C(C)=C/Cn1c[n+](C)c2ncnc(N)c21 [AGELASINE D] |
| 205.7 | CCCCCCCCCCCCCC[N+](C)(C)Cc1ccccc1 [BENZALKONIUM CHLORIDE C14] |

From the C3SDB collision cross section collection
